From patent US7087626B2, “Pyrrole derivatives as pharmaceutical agents” (Eli Lilly and Company, priority 2001, dated 2006)

Experiments:
Type in all cases: biochemical
p38α/SAPK2α = target: T1, p38α/SAPK2α (Homo sapiens, UniProt Q16539); experiment: p38α in vitro kinase assay; settings: 5 nM p38α, 62.5 uM EGFR substrate, 100 uM ATP, 30° C., 40 min
T1 construct: purchased Upstate Biotechnology 14-251
Procedure: p38α in vitro Kinase Assay
Active p38α/SAPK2α was purchased from Upstate Biotechnology (cat#14-251). A known p38α substrate from EGFR was used in the assay (Young, et al. (1997) JBC 272: 12116-12121).
Reactions were performed in 1× kinase buffer (25 mM Tris-HCl pH 7.5, 5 mM β-glycerophosphate, 2 mM DTT, 0.1 mM Na3VO4, 10 mM MgCl2, 1 uM Microcystin) with 5 nM p38α, 62.5 uM substrate, 40 uM to 0.2 nM compound dilution series in 1×KB/16% DMSO (final 4% DMSO concentration). Reactions were started by addition of 100 uM ATP (final concentration) with 1 uCi ^33P-γ-ATP in 1×KB and incubated at 30° C. for 40 min. Reactions were stopped with H3PO4 and quantitated on Millipore PH phosphocellulose filter plates by liquid scintillation counting on a MicroBeta JET.

KDR (VEGFR2) = target: T2, KDR (VEGFR2) (Homo sapiens, UniProt P35968); experiment: KDR (VEGFR2) in vitro kinase assay; settings: 1 ug enzyme, 1 uM ATP, 30° C., 20 min
T2 construct: The 6×-HIS tagged cytoplasmic kinase domain of KDR was expressed and purified from Sf9 insect cell lysates; 6xHis; made in house; host or cells: Sf9 insect cells
T2 sequence (P35968 834-1162 limits assumed, species assumed): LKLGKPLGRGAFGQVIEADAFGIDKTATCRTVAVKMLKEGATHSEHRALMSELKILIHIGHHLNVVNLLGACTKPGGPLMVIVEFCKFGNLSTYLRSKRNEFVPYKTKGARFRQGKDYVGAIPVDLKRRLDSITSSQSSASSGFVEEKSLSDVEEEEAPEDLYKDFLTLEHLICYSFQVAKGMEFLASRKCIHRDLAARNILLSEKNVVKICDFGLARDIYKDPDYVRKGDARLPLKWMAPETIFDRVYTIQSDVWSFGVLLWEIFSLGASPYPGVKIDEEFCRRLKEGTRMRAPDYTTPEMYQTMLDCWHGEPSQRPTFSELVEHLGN
Procedure: KDR (VEGFR2) Purification and in vitro Kinase Assay
The 6×-HIS tagged cytoplasmic kinase domain of KDR was expressed and purified from Sf9 insect cell lysates as described above with the following modification:
1× kinase buffer for chromatography washes and elution was changed to 100 mM HEPES pH 7.5, 10 mM MnCl2 and 5 mM β-mercaptoethanol. The resulting material was approximately 40% pure and had tyrosine autophosphorylation activity.
Reactions: 1 ug enzyme in 1×KB, compound dilution series in 1×KB/16% DMSO (20 uM to 1 nM final concentration with 4% DMSO final concentration), reactions were started by adding ATP mix (1 uM ATP/1 uCi ^33P-[…]-ATP final concentrations) in 1×KB.
Reactions were incubated at 30° C. for 20 min. The reactions were stopped and quantitated using standard TCA/BSA precipitation onto Millipore FC glass fiber filter plates and by liquid scintillation counting on a MicroBeta JET.

[1] = target: T3, TGF-β Type I (RIT204D) receptor (Homo sapiens, UniProt P36897, T204D); experiment: TGF-β Receptor I (RIT204D) in vitro kinase reaction; settings: 6×-HIS cytoplasmic kinase domain, 4 uM ATP, 30° C., 1 hr
T3 construct: The 6×-HIS tagged cytoplasmic kinase domain of each receptor was expressed and purified from Sf9 insect cell lysates; 6xHis; made in house; host or cells: Sf9 insect cells
T3 sequence (P36897 148-503 T204D limits assumed): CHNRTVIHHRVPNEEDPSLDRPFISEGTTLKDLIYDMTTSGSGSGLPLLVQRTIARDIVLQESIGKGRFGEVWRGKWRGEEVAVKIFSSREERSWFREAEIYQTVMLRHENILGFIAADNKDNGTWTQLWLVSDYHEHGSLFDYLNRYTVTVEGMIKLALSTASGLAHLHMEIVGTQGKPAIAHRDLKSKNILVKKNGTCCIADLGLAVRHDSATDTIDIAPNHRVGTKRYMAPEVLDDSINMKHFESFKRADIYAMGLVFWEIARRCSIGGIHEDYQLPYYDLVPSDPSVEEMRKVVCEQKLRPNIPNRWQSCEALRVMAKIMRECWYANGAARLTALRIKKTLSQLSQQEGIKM
Procedure: TGF-β Receptor I and II Purification and in vitro Kinase Reactions
For TGF-β Type I (RIT204D) and Type II (RII WT) Receptors: The 6×-HIS tagged cytoplasmic kinase domain of each receptor was expressed and purified from Sf9 insect cell lysates as briefly described below:
Cell pellets after 48-72 hrs of infection were lysed in lysis buffer (LB: 50 mM Tris pH 7.5, 150 mM NaCl, 50 mM NaF, 0.5% NP40 with freshly added 20 mM, β-mercaptoethanol, 10 mM imidazole, 1 mM PMSF, 1×EDTA-free Complete Protease Inhibitor (Boehringer Mannheim).
Reactions: 170-200 nM enzyme in 1×KB, compound dilution series in 1×KB/16% DMSO (20 uM to 1 nM final concentration with 4% DMSO final concentration), reactions started by adding ATP mix (4 uM ATP/1 uCi ^33P-[…]-ATP final concentrations) in 1×KB.
Reactions were incubated at 30° C. for 1 hr RIT204D or 40 min for RII WT. Reactions were stopped and quantitated using standard TCA/BSA precipitation onto Millipore FB glass fiber filter plates and by liquid scintillation counting on a MicroBeta JET.

T1 sequence (Q16539 whole entry): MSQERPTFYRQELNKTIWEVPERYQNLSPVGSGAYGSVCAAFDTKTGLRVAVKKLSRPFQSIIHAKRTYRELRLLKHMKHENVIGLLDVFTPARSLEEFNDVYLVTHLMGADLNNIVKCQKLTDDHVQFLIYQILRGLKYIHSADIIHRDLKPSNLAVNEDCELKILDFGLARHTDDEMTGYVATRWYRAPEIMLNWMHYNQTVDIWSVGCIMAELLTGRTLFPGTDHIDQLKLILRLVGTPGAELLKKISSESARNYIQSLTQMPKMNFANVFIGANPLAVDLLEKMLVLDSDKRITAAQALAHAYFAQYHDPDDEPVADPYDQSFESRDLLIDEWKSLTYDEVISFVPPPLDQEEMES

Compound | IC50 (p38α/SAPK2α) [µM] | IC50 (KDR (VEGFR2)) [µM] | IC50 [1] [µM]
COC(=O)c1ccc2c(-c3c(-c4ccccn4)nn4c3CCC4)ccnc2c1 [4-[2-Pyridin-2-yl-5,6-dihydro-4H-pyrrolo[1,2-b]pyrazol-3-yl]-quinoline-7-carboxylic acid methyl ester] | < 20 | < 20 | 
CCN(CC)CCCOc1ccc2c(-c3c(-c4cccc(C)n4)nn4c3CCC4)ccnc2c1 [Diethyl-(3-{4-[2-(6-methyl-pyridin-2-yl)-5,6-dihydro-4H-pyrrolo[1,2-b]pyrazol-3-yl]-quinolin-7-yloxy}-propyl)-amine] |  | < 20 | 
CN(C)C(=O)c1cccc(Oc2ccc3c(-c4c(-c5ccccn5)nn5c4CCC5)ccnc3c2)c1 [N,N-Dimethyl-3-[4-(2-pyridin-2-yl-5,6-dihydro-4H-pyrrolo[1,2-b]pyrazol-3-yl)-quinolin-7-yloxy]-benzamide] |  | < 20 | < 20
